We go through 18 compounds from patent US8796313B2, “Substituted dihydroisoindolones as allosteric modulators of glucokinase” (Janssen Pharmaceutica N.V., priority 2005, dated 2014).

The assay concerns the target T1, human pancreas Glucokinase (GK) (Homo sapiens, UniProt P35557).
T1 construct: His6; made in house; host or cells: Escherichia coli
T1 sequence (P35557 1-465): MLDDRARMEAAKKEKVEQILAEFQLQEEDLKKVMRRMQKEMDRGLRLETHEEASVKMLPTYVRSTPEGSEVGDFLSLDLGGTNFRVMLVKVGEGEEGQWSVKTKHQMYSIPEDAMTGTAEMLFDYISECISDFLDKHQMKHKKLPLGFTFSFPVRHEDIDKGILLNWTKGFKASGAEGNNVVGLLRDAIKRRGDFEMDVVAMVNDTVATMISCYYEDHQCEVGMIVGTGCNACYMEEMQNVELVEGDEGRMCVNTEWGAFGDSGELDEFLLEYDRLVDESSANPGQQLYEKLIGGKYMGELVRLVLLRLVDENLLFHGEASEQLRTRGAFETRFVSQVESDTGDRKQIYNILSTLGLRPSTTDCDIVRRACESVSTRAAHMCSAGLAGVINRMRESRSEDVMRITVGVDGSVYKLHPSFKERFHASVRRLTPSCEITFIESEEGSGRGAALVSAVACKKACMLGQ
Description: Glucokinase enzyme assay, pancreas GK. It counts as biochemical. Conditions: for EC50: concentration that produces 50% activation above vehicle control; for EC100%: concentration that produces 100% activation above vehicle control; for activation at 50 µM: increase in GK activity above vehicle control, compound 50 μM, 12 mM glucose; for % Activation @ 5 μM: cell states @ 5 μM instead of the head's 50 μM. The source says: An enzymatic Glucokinase (GK) assay using purified recombinant human liver/pancreas enzyme was used to evaluate the effects of potential small molecule modulators.
In this assay, GK catalyzes glucose phosphorylation in the presence of ATP. The product of this reaction, glucose-6-phosphate, was then oxidized by an excess of glucose-6-phosphate dehydrogenase to produce gluconate-6-phosphate with concomitant reduction of nicotinamide adenine dinucleotide (NAD). […] Human GK (Liver/Pancreas) was expressed in Escherichia coli as a (His) 6-tagged fusion protein and was purified by metal chelate affinity chromatography. The assay was performed in a final incubation volume of 80 μl in a 96-well clear low UV absorption plates. The incubation mixture consisted of 25 mM HEPES, 2 mM MgSO4, 1 mM dithiothreotol (DTT), 1 mg/mL bovine serum albumin (BSA), 1 mM ATP, 1 mM NAD, and 12 mM glucose, 10 units per mL glucose-6-phosphate dehydrogenase, and +/−300 ng per mL GK. For determination of the affinity (Km) and Vmax, different concentrations of glucose ranging from 0.5 mM to 40 mM were used in the assay; see Grimsby, J., Sarabu, R.; Grippo, J. F.; et. al. Science 2003, 301, 370-373. […] EC50% (μM) was calculated as the effective concentration of the compound that produces 50% activation above the vehicle control, and EC100% (μM) was calculated as the effective concentration of the compound that produces 100% activation above the vehicle control.

Consider `O=C(CCC1c2c(F)cccc2C(=O)N1Cc1ccc(F)cc1)Nc1cc2ccccc2cn1` (stereo not shown) [Compound 29, 3-[7-Fluoro-2-(4-fluoro-benzyl)-3-oxo-2,3-dihydro-1H-isoindol-1-yl]-N-isoquinolin-3-yl-propionamide], for which the EC50 came to 46 nM, the “EC100%” value is 0.32 µM and the activation at 50 µM turned out to be 212%.
For the compound `COCOCc1ccc(NC(=O)CCC2c3c(F)cccc3C(=O)N2Cc2ccc(F)cc2)nc1` (stereo not shown) [Compound 30, 3-[7-Fluoro-2-(4-fluoro-benzyl)-3-oxo-2,3-dihydro-1H-isoindol-1-yl]-N-(5methoxymethoxymethyl-pyridin-2-yl)-propionamide], the EC50 was 230 nM, the “EC100%” value was determined as 1.2 µM and the activation at 50 µM stood at 175%.
For `O=C(CCC1c2c(F)cccc2C(=O)N1Cc1ccc(F)cc1)Nc1ccc(-c2ccccc2)cn1` (stereo not shown) [Compound 31, 3-[7-Fluoro-2-(4-fluoro-benzyl)-3-oxo-2,3-dihydro-1H-isoindol-1-yl]-N-(5-phenyl-pyridin-2-yl)-propionamide] the same measures were 1900 nM, 300 µM and 64.1%.
`O=C(CCC1c2c(F)cccc2C(=O)N1Cc1ccc(F)cc1)Nc1ccc(Br)cn1` (stereo not shown) [Compound 32, N-(5-Bromo-pyridin-2-yl)-3-[7-fluoro-2-(4-fluoro-benzyl)-3-oxo-2,3-dihydro-1H-isoindol-1-yl]-propionamide]: the EC50 worked out at 13 nM, the “EC100%” value came to 0.39 µM and the activation at 50 µM came out at 147%.
For `O=C(CCC1c2c(F)cccc2C(=O)N1Cc1ccc(F)cc1)Nc1ccc(-c2ccc(F)cc2)cn1` (stereo not shown) [Compound 33, 3-[7-Fluoro-2-(4-fluoro-benzyl)-3-oxo-2,3-dihydro-1H-isoindol-1-yl]-N-[5-(4-fluoro-Phenyl)-pyridin-2-yl]-propionamide] the same measures were 488 nM, 4.5 µM and 177%.
As for `NS(=O)(=O)c1ccc(NC(=O)CCC2c3c(F)cccc3C(=O)N2Cc2ccc(F)cc2)nc1` (stereo not shown) [Compound 34, 3-[7-Fluoro-2-(4-fluoro-benzyl)-3-oxo-2,3-dihydro-1H-isoindol-1-yl]-N-(5-sulfamoyl-pyridin-2-yl)-propionamide], the EC50 is 407 nM, the “EC100%” value came to 4.3 µM and the activation at 50 µM was determined as 142%.
`O=C(CCC1c2cccc(Cl)c2C(=O)N1Cc1ccc(F)cc1)Nc1ccccn1` (stereo not shown) [Compound 35, 3-[4-chloro-2-(4-fluoro-benzyl)-3-oxo-2,3-dihydro-1H-isoindol-1-yl]-N-pyridin-2-yl-propionamide]: the EC50 came out at 230 nM, the “EC100%” value was 0.75 µM and the activation at 50 µM stood at 306%.
In the case of `O=C(CCC1c2c(Cl)cccc2C(=O)N1Cc1ccc(F)cc1)Nc1ccccn1` (stereo not shown) [Compound 36, 3-[7-Chloro-2-(4-fluoro-benzyl)-3-oxo-2,3-dihydro-1H-isoindol-1-yl]-N-pyridin-2-yl-propionamide], the EC50 was 143 nM, the “EC100%” value was 0.411 µM and the activation at 50 µM worked out at 342%.
For `CC(=O)c1ccc(NC(=O)CCC2c3c(F)cccc3C(=O)N2Cc2ccc(F)cc2)nc1` (stereo not shown) [Compound 37, N-(5-Acetyl-pyridin-2-yl)-3-[7-fluoro-2-(4-fluoro-benzyl)-3-oxo-2,3-dihydro-1H-isoindol-1-yl]-propionamide], the EC50 came to 54 nM, the “EC100%” value turned out to be 0.225 µM and the activation at 50 µM was found to be 259%.
In the case of `O=C(CCC1c2cccc(Cl)c2C(=O)N1Cc1ccc(F)cc1)Nc1ccc(Br)cn1` (stereo not shown) [Compound 38, N-(5-Bromo-pyridin-2-yl)-3-[4-chloro-2-(4-fluoro-benzyl)-3-oxo-2,3-dihydro-1H-isoindol-1-yl]-propionamide], the EC50 is 173 nM, the “EC100%” value worked out at 0.615 µM and the activation at 50 µM amounted to 309%.
On to `O=C(CCC1c2c(Cl)ccc(Cl)c2C(=O)N1Cc1ccc(F)cc1)Nc1ccccn1` (stereo not shown) [Compound 39, 3-[4,7-Dichloro-2-(4-fluoro-benzyl)-3-oxo-2,3-dihydro-1H-isoindol-1-yl]-N-pyridin-2-yl-propionamide], for which the EC50 stood at 433 nM, the “EC100%” value was determined as 2.5 µM and the activation at 50 µM amounted to 206%.
The compound `O=C(CCC1c2c(F)cccc2C(=O)N1Cc1ccc(F)cc1)Nc1cccc[n+]1[O-]` (stereo not shown) [Compound 40, 3-[7-Fluoro-2-(4-fluoro-benzyl)-3-oxo-2,3-dihydro-1H-isoindol-1-yl]-N-(1-oxy-pyridin-2-yl)-propionamide] displayed an activation at 50 µM of 52.3%.
For `Cc1ccc(NC(=O)CCC2c3c(F)cccc3C(=O)N2Cc2ccc(F)cc2)nc1` (stereo not shown) [Compound 41, 3-[7-Fluoro-2-(4-fluoro-benzyl)-3-oxo-2,3-dihydro-1H-isoindol-1-yl]-N-(5-methyl-pyridin-2-yl)-propionamide], the EC50 came out at 54 nM, the “EC100%” value came to 0.48 µM and the activation at 50 µM was found to be 191%.
The corresponding values for `O=C(CCC1c2c(F)cccc2C(=O)N1Cc1ccc(-n2cccc2)cc1)Nc1ccc(F)cn1` (stereo not shown) [Compound 42, 3-[7-Fluoro-3-oxo-2-(4-pyrol-1-yl-benzyl)-2,3-dihydro-1H-isoindol-1-yl]-N-(5-fluoro-pyridin-2-yl)-propionamide] are 182 nM, 1.7 µM and 168%.
For `O=C(CCC1c2c(F)cccc2C(=O)N1Cc1ccc(F)cc1)Nc1ccc(Cl)nn1` (stereo not shown) [Compound 43, N-(6-Chloro-pyridazin-3-yl)-3-[7-fluoro-2-(4-fluoro-benzyl)-3-oxo-2,3-dihydro-1H-isoindol-1-yl]-Propionamide] the same measures were 629 nM, 5.2 µM and 152%.
As for `O=C(CCC1c2c(F)cccc2C(=O)N1Cc1ccc(F)cc1)Nc1ccc(Cl)cn1` (stereo not shown) [Compound 44, N-(5-Chloro-pyridin-2-yl)-3-[7-fluoro-2-(4-fluoro-benzyl)-3-oxo-2,3-dihydro-1H-isoindol-1-yl]-propionamide], the “% Activation @ 5 μM” value is reported as 168 @ 5 μM %, the EC50 was found to be 71 nM and the “EC100%” value came to 0.375 µM.
In the case of `CCOC(=O)/C=C/c1ccc(NC(=O)CCC2c3c(F)cccc3C(=O)N2Cc2ccc(F)cc2)nc1` (stereo not shown) [Compound 45, 3-(6-{3-[7-Fluoro-2-(4-fluoro-benzyl)-3-oxo-2,3-dihydro-1H-isoindol-1-yl]-propionylamino}-pyridin-3-yl)-acrylic acid ethyl ester], the “% Activation @ 5 μM” value is on record as 138 @ 5 μM %, the EC50 worked out at 125 nM and the “EC100%” value turned out to be 0.813 µM.
Turning to `O=C(CCC1c2c(F)cccc2C(=O)N1Cc1ccc(F)cc1)Nc1ccc(C(=O)OCc2ccccc2)cn1` (stereo not shown) [Compound 46, 6-{3-[7-Fluoro-2-(4-fluoro-benzyl)-3-oxo-2,3-dihydro-1H-isoindol-1-yl]-propionylamino}-nicotinic acid benzyl ester], the “% Activation @ 5 μM” value is given as 133 @ 5 μM %, the EC50 is 219 nM and the “EC100%” value was found to be 1.2 µM.
